From publication PMC8607422, “Development of a novel TLR8 agonist for cancer immunotherapy” (Molecular Biomedicine, 2020)

How the values were obtained:
[1] = target: T1, hTLR9 (Homo sapiens, UniProt Q9NR96); experiment: HEK-Blue hTLR9 SEAP reporter agonist assay; type: cell-based; conditions: HEK-Blue hTLR9 cells, highest concentration 50 μM
T1 construct: host or cells: HEK-Blue hTLR9
T1 sequence (Q9NR96 26-1032): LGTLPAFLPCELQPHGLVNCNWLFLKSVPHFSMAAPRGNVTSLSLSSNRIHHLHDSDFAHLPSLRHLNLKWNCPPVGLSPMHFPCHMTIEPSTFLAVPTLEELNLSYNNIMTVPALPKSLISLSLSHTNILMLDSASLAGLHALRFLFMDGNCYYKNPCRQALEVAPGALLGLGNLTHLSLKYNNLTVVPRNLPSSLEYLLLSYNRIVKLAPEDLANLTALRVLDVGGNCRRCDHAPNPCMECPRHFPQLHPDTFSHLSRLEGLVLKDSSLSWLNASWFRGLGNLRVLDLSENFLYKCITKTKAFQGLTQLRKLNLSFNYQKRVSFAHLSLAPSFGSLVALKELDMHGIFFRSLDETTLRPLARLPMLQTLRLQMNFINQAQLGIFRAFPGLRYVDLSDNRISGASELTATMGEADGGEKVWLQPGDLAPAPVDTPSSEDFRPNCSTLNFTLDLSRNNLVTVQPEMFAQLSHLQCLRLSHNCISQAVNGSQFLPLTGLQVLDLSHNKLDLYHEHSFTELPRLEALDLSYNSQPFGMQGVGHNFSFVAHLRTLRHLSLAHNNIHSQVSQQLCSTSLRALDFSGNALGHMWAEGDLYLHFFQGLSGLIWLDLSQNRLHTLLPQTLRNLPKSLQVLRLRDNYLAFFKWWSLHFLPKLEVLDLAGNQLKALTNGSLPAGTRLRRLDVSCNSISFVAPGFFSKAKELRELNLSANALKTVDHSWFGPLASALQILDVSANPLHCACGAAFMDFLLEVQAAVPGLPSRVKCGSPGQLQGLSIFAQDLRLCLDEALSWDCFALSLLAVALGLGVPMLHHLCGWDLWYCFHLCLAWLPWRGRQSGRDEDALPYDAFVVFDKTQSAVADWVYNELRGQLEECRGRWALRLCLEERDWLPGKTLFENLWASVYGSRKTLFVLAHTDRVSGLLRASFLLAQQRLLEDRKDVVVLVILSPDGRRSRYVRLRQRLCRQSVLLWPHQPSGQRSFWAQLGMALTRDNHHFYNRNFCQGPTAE
Text: (§1) HEK-Blue™ hTLR4, 7, 8 and 9 cell lines were purchased from InvivoGen (Hong Kong). The cells express the human TLR gene and NF-κB/AP-1-inducible SEAP (secreted embryonic alkaline phosphatase) reporter gene. SEAP levels produced upon TLR stimulation can be determined by QUANTI-Blue™. In the cell-based assay, the main reagents used were QUANTI-Blue™ (InvivoGen) and ATPlite 1 Step (Perkin Elmer). The main instruments used were the microplate reader SpectraMax 340PC (Molecular Device) and Envision (Perkin Elmer). Motolimod and DN052 were synthesized in house. […] The compounds were in 10 mM stock solution in DMSO and stored at − 20°C. The compounds were serially diluted in the concentration range from 0.5 nM to 15 μM (up to 50 μM in the hTLR4, hTLR7 and hTLR9 assays) and added to 96-well plates. DMSO was used as the negative control. LPS-EK, R848, motolimod and ODN2006 were used as the positive control for TLR4, 7, 8 and 9, respectively. The cells were cultured and treated with the compounds at 37°C, 5%CO2 for 24 h. […] After 1.5 h of incubation, the optical density was measured using the spectrophotometer at 650 nm in the microplate reader of SpectraMax 340PC. The cell viability of each well was determined using ATPlite 1 Step following the manufacturer’s instruction. The luminescence signal in each well of plates was measured in the microplate reader of Envision.

[2] = system: HL-60 cells; experiment: Nitroblue Tetrazolium (NBT) cell differentiation assay; type: cell-based; conditions: Homo sapiens, unit from concentration axis
Text: Supplementary file 43556_2020_7_MOESM1_ESM.pdf: Additional file 1: Supplementary Fig. 1. […] Suplementary Fig. 2. […] Supplementary Fig. 3. Nitroblue Tetrazolium (NBT) cell differentiation assay. […] Supplementary Fig. 4. Representative data from human PBMC assay. […] Similar results were obtained from two different donors.

[3] = Cell viability (ATPlite 1 Step) cytotoxicity assay; type: cell-based; conditions: human, HEK-Blue hTLR7 and hTLR8 cells
Text: as §1

[4] = in vivo; set-up: species or system Sprague Dawley rats; conditions: Sprague Dawley, rat
Experimental: To determine the in vivo pharmacokinetic profiles, the compounds were formulated with 11% captisol and then administered iv, ip, sc and po into Sprague Dawley rats or iv and sc into mice or cynomolgus monkeys, respectively. Blood samples were collected before dosing and 0.083 h, 0.25 h, 0.5 h, 1 h, 2 h, 4 h, 6 h, 8 h, 12 h and 24 h after dosing. Blood samples were collected in tubes containing K2EDTA. Plasma was isolated from the blood samples by centrifugation of the blood samples at 2400 × g for 5 min at 4°C. Plasma samples were measured using LC-MS/MS (Waters ACQUITY UPLC and TQ 6500+) to determine the concentration of compounds. The data was analyzed using WinNonlin 7.0 to calculate the PK parameters such as AUC0-t, AUC0-∞, MRT0-∞, Cmax, Tmax, t1/2 and F.

## CCCN(CCC)C(=O)C1=Cc2ccc(-c3ccc(C(=O)N4CCCC4)cc3)cc2N=C(N)C1 [Motolimod, motolimod]
[1]
  EC50: > 50 µM
[2]
  EC50: 1.43 µM
[3]
  CC50 at 24 h: > 50 µM
[4]
  bioavailability: 57.4%
[4]; iv, 2.5 mg/kg
  Vd: 18.6 L/kg
  clearance: 45.5 mL/min/kg
[4]; sc, 10 mg/kg
  AUC(0-inf): 2130 ng·h/mL
  AUC(0-t): 2130 ng·h/mL
  Cmax: 720 ng/mL
  Tmax: 1.17 h
  half-life: 0.92 h
